# Patent publication US10821142B2, “Cancer treatment and diagnosis” (priority 2015, dated 2020)
# Key:
# Type in all cases: cell-based, human
# [1] = test system: STING-dependent dsDNA signaling; assay: IFNB and CXCL10 induction by dsDNA in 5AZADC treated melanoma cells
# Protocol: (§1) FIGS. 30A-30G show DNA demethylation partially recapitulated STING and cGAS expression in human melanoma cell lines. FIG. 30A, qPCR analysis of cGAS expression in indicated human melanoma cells mock treated or treated with 1 μM […] (5AZADC) for 5 days. FIG. 30B, Immunoblot analysis of STING in indicated human melanoma cells treated same as above. FIG. 30C, RNA FISH analysis of STING and cGAS in cells (same as above) treated with 5AZADC same as above. Representative images are shown at 1260×. Bar size, 400 nm. qPCR analysis of IFNB (FIG. 30D) and CXCL10 (FIG. 30E) in cells (same as above) treated with 5AZADC followed by dsDNA transfection at 3 μg/ml dsDNA90 for 3 hours. Immunofluorescence Microscopy analysis of IRF3 translocation (FIG. 30F) and STING translocation (FIG. 30G) in indicated cells treated same as in FIG. 30D. Representative images are shown at 1260×. Bar size, 500 nm.
# In view of this, it was examined whether STING or cGAS expression was suppressed by epigenetic processes, such as by hypermethylation of the promoter regions (20, 21). Indeed, databank analysis indicated the presence of considerable CpG islands within the STING and cGAS promoter region. As such, melanoma cells lacking either STING or cGAS expression were treated with the de-methylating agent 5-Aza-2′-deoxycytidine (5AZADC) for 5 days and evaluated recapitulation of STING or cGAS expression. […] Therefore DNA hypermethylation is involved in silencing STING or cGAS expression in some melanoma cells (A375 and MeWo). However it is not yet clear why expression levels of STING are muted in the remainder melanoma cells (G361, SK-MEL-5). Other epigenetic modifications such as histone modifications or other transcription regulator factors such as miRNA could be involved in suppressing STING and/or cGAS expression (Jin et al., 2013, Yarbrough et al., 2014). […]
# Total RNA was reverse-transcribed using QuantiTect Reverse Transcription Kit (Qiagen). […]
# [2] = test system: cGAS expression; assay: cGAS expression (qPCR) in cGAS negative colon cancer cells after epigenetic drug treatment; details: LS174T, SW480, SW1417, SW48, HT116; 5 days; rescued: SW480 and HT116
# Protocol: FIGS. 5A-5F show STING activation and cytosolic DNA pathway in colon cancer cells were mostly defective: A series of colon cancer cells as well as normal cell controls were either mock transfected or transfected with dsDNA90 at 3 μg/ml for 3 hours, and were analyzed by Immunofluorescence Microscopy for STING translocation (FIG. 5A), IRF3 translocation (FIG. 5B), and p65 translocation (FIG. 5C). (FIG. 5D) Cells, same as above, were either mock transfected or transfected with dsDNA90 at 3 μg/ml for indicated time periods followed by immunoblot analysis for STING phosphorylation as well as phosphorylation of TBK1, IRF3 and p65. β-actin was used as loading control. (FIG. 5E) Cells, same as above, were analyzed by qPCR for cGAS expression. (FIG. 5F) Cells that have undetectable level of cGAS in E were treated with 1 μM 5-azacytidine for […], followed by qPCR analysis for cGAS expression. […] Error bars indicate s.d.
# FIGS. 15A-15E show cGAS expression is suppressed in many human colon cancer cell lines and can be partially recapitulated through DNA demethylation. […]
# To complement the above study, the expression of cGAS in the colon cancer cell-lines was examined. […] Given these findings, examination of the expression of cGAS in 47 human colon cancers at various stages of tumorigenesis was analyzed (FIG. 13C). Expression of cGAS was low to undetectable in approximately 30% of cells analyzed. […]
# [3] = test system: STING-dependent dsDNA signaling; assay: STING signal activation by dsDNA90 in colon cancer cells after demethylation; details: for phosphorylation of TBK1 and IRF3 after dsDNA: 5AZADC 5 days then dsDNA90 3 μg/ml
# [4] = test system: STING and cGAS expression; assay: STING and cGAS expression in melanoma cells after 5AZADC (qPCR, immunoblot, RNA FISH); details: 5 days
# Protocol: as §1
# In view of this, it was examined whether STING or cGAS expression was suppressed by epigenetic processes, such as by hypermethylation of the promoter regions (20, 21). Indeed, databank analysis indicated the presence of considerable CpG islands within the STING and cGAS promoter region. As such, melanoma cells lacking either STING or cGAS expression were treated with the de-methylating agent 5-Aza-2′-deoxycytidine (5AZADC) for 5 days and evaluated recapitulation of STING or cGAS expression. […] Therefore DNA hypermethylation is involved in silencing STING or cGAS expression in some melanoma cells (A375 and MeWo). However it is not yet clear why expression levels of STING are muted in the remainder melanoma cells (G361, SK-MEL-5). Other epigenetic modifications such as histone modifications or other transcription regulator factors such as miRNA could be involved in suppressing STING and/or cGAS expression (Jin et al., 2013, Yarbrough et al., 2014). To determine if reconstitution of STING/cGAS expression rescued STING-dependent dsDNA signaling, IFNB and CXCL10 induction was examined in 5AZADC treated melanoma cells following dsDNA stimulation. […] Thus, demethylating agents may be able to partially rescue STING-dependent innate immune gene induction in select melanoma cells.
# Equal amounts of proteins were resolved on sodium dodecyl sulfate (SDS)-Polyacrylamide gels and then transferred to polyvinylidene fluoride (PVDF) membranes (Millipore). After blocking with 5% Blocking Reagent, membranes were incubated with various primary antibodies (and appropriate secondary antibodies). The image was resolved using an enhanced chemiluminescence system ECL (Thermo Scientific) and detected by autoradiography (Kodak). Antibodies: rabbit polyclonal antibody against STING was developed in our laboratory as described previously in Ishikawa et al, 2008; other antibodies were obtained from following sources: β-actin (Sigma Aldrich), p-IRF3 (Cell Signaling), IRF3 (Santa Cruz Biotechnology), p-p65 (Cell Signaling), p65 (Cell Signaling), p-TBK1 (Cell Signaling), TBK1 (Abcam), cGAS (Cell Signaling).
# Total RNA was reverse-transcribed using QuantiTect Reverse Transcription Kit (Qiagen). Real-time PCR was performed with the TaqMan gene Expression Assay (Applied Biosystems).
# STING and cGAS RNA probed was custom designed by ACD and RNA in situ Hybridization was performed using RNAscope® Multiplex Fluorescent Reagent Kit for cultured cells and 2-plex RNAscope® Reagent Kit for FFPE cells and tissue following the manufacturer's instruction.
compound,measurement,setting,value
"Nc1ncn([C@H]2C[C@H](O)[C@@H](CO)O2)c(=O)n1 [5AZADC, 5-Aza-2′-deoxycytidine]",STING function following dsDNA stimulation,[1]; G361 or SK-MEL-5 cells,no STING function was observed
same,IFNB induction following dsDNA stimulation,[1]; STING rescued MeWo cells,modest expression of IFNB
same,IFNB and CXCL10 induction following dsDNA stimulation,[1]; cGAS rescued A375 cells,Induction of both IFNB and CXCL10 production was observed
same,cells in which cGAS expression was rescued,[2],2 of the 5
same,expression of type I IFN and IL-1β after dsDNA,"[3]; 5AZADC treated SW480 and HT116, dsDNA90 3 μg/ml for 3 hours",modest expression of type I IFN and IL-1β
same,phosphorylation of TBK1 and IRF3 after dsDNA,[3]; LS174T (cGAS not rescued),not LS174T cells regained phosphorylation of TBK1 and IRF3
same,phosphorylation of TBK1 and IRF3 after dsDNA,"[3]; SW480, HT116 (cGAS rescued)",regained phosphorylation of TBK1 and IRF3
same,cGAS expression,[4]; A375 cells,cGAS expression was recovered
same,STING expression,[4]; G361 and SK-MEL-5 cells,STING remained absent
same,STING expression,"[4]; MeWo cells, immunoblot and RNA FISH",STING expression was restored
same,cGAS expression,[4]; SK-MEL-5 cells,partially restored
same,cGAS expression,[4]; SK-MEL-24 cells,did not seem to affect cGAS expression level
